# From patent publication US20240133884A1, “COMPOSITIONS AND METHODS FOR DETECTING TRYPANOSOMA CRUZI INFECTION” (University of Georgia Research Foundation, Inc., priority 2022, published 2024)
# Legend:
# [1] = tested on: T. cruzi; conditions: T. cruzi-infected NHPs; cited from earlier work
# [2] = tested on: T. cruzi intracellular amastigotes; assay: In vitro anti-T. cruzi amastigote growth inhibition assay (tdTomato fluorescence, 72 hours, Vero cells); format: cell-based, Trypanosoma cruzi; conditions: for in vitro activity against T. cruzi: in words
# Procedure: (§1) The in vitro anti-T. cruzi amastiogote activity assay was performed and optimized based on the protocol described previously (Canavaci, et al., PLoS neglected tropical diseases 4, e740 (2010)). The change in tdTomato fluorescence intensity was determined as a measurement of growth over 72 hours of culture. For assaying drug effects on extracellular amastigotes, trypomastigotes were collected from infected Vero cell cultures and converted in acidic media as previously described (Tomlinson, et al., Parasitology 110 (Pt 5), 547-554 (1995)). Amastigotes (50,000/well) were incubated with 2-fold serial dilutions of compounds for 48 hours. The ATP production was used as an indication of growth in this case, and was measured by ATPlite Luminescence ATP Detection Assay System (PerkinElmer). Both fluorescence and luminescence were read using a BioTek Synergy Hybrid Multi-Mode reader equipped with the software Gene5 v 2.0 (BioTek). The dose-response curve was generated by […] analysis with GraphPad Prism v9.4.0 (GraphPad Software). IC50 was determined as the drug concentration that was required to inhibit 50% of growth compared to that of parasites with no drug exposure.
# [3] = in vivo
# [4] = tested on: T. cruzi (Brazil strain); conditions: cited from earlier work
# [5] = tested on: CPSF3; conditions: T. b. brucei; cited from earlier work
# [6] = tested on: T. cruzi (Colombiana strain); assay: BNZ prophylaxis in mice (bioluminescence imaging, T-cell phenotyping, tissue qPCR); format: in vivo, Trypanosoma cruzi; conditions: for luciferase signal: 100 mg/kg twice weekly
# Procedure: For the studies in mice, female mice, 8-12 weeks old were used for infections throughout the study. Sample sizes were determined based upon knowledge of heterogeneity in parasite burden during T. cruzi infection and published reports using similar experimental strategies. Data collected were included if productive T. cruzi infection was established (visualized by luciferase imaging or flow cytometry by detection of T. cruzi-tetramer specific CD8^+ T cells). The investigators were not blinded during the collection or analysis of data and mice were randomly assigned to treatment groups prior to the start of each experiment.
# C57BL/6J (Stock No:000664) mice (C57BL/6 wild-type) were purchased from The Jackson Laboratory (Bar Harbor, ME) and C57BL/6J-IFN-gamma knockout mice (also known as B6.129S7-Ifngtm1 Ts/J; The Jackson Laboratory stock No 002287) were bred in-house at the University of Georgia Animal Facility. All the animals were maintained in the University of Georgia Animal Facility under specific pathogen-free conditions. T. cruzi tissue culture trypomastigotes of the Colombiana strain co-expressing firefly luciferase and tdTomato reporter proteins, generated as described previously (Sanchez-Valdez, et al., eLife 7 (2018), Bustamante, et al., Sci Transl Med. 12(567) 2020)), were maintained through passage in Vero cells (American Type Culture Collection (Manassas, VA)) cultured in RPMI 1640 medium with 10% fetal bovine serum at 37° C. in an atmosphere of 5% CO2. Mice were infected intraperitoneally with 10^3 tissue culture trypomastigotes of T. cruzi. This study was carried out in strict accordance with the Public Health Service Policy on Humane Care and Use of Laboratory Animals and Association for Assessment and Accreditation of Laboratory Animal Care accreditation guidelines. The protocol was approved by the University of Georgia Institutional Animal Care and Use Committee.
# Mice were treated with benznidazole twice weekly at a 100 mg/kg/day and infected midway during the 3rd week of treatment (FIG. 8A). Benznidazole (BNZ—Elea Phoenix, Buenos Aires, Argentina) was prepared by pulverization of tablets followed by suspension in an aqueous solution of 1% sodium carboxymethylcellulose with 0.1% Tween 80 and delivered orally by gavage at a concentration dosage of 100 mg/kg of body weight. Each mouse received 0.2 ml of this suspension. Luciferase-expressing parasites were quantified in mice by bioluminescent detection. Mice were injected intraperitoneally with D-luciferin (150 mg/kg; PerkinElmer, Waltham, MA) and anesthetized using 2.5% (vol/vol) gaseous isofluorane in oxygen prior to imaging on an IVIS Lumina II imager (Xenogen, Alameda, CA) for an exposure time of 5 minutes, as previously described (Canavaci, et al., PLoS neglected tropical diseases 4(7):e740 (2010)). Quantification of bioluminescence and data analysis was performed using Aura Imaging Software version 4.0.7 (Spectral Instruments Imaging, Tucson, AZ).
# Whole blood was incubated with a major histocompatibility complex I (MHC I) tetramer containing the T. cruzi transialidase TSKB20 peptide (ANYKFTLV (SEQ ID NO:124)/Kb) labeled with BV421 (Tetramer Core Facility at Emory University, Atlanta, GA) and the following labeled antibodies: anti-CD8 FITC, anti-CD4 APC EF780, anti-CD127 PE (BD Bioscience, San Jose, CA). At least 500,000 cells were acquired using a CyAn ADP flow cytometer (Beckman Coulter, Hialeah, Florida) and analyzed with FlowJo software v10.6.1 (Treestar, Inc., Ashland, OR).
# […]
# [7] = tested on: T. cruzi; assay: BNZ prophylaxis / treatment in kennel dogs (multiplex serology, blood PCR); format: in vivo, Trypanosoma cruzi; conditions: for impact of prophylaxis on new infections: high intensity transmission setting
# Text: For studies in dogs, a small network of kennels was formed in central and south Texas with a history of triatomine vector occurrence and canine Chagas disease with owners who were willing to participate in the study. Kennels are identified through (i) canine patients with Chagas disease presenting to the cardiology unit at the TAMU VMTH and (ii) the TAMU Kissing Bug Community Science program, in which many dog owners submit triatomines collected from large kennel environments. At these large kennels, dogs are primarily bred and trained to aid hunting parties. Approximately 40-80 dogs reside within each kennel, and the predominant breeds include Belgian Malinois, Brittany spaniels, English pointers, German shorthaired pointers, Labrador retrievers, and hound dogs. Dogs >3 months of age, including males and females, were eligible for enrollment. Dogs identified after blood screening as seronegative based on multiplex serology and PCR-negative were randomly assigned to treatment groups. Neither the investigators, private veterinarian providing care to the dogs in the field, nor the dog owners were blinded to the treatment groups and no placebo was given to control dogs. Informed consent was obtained from dog owners prior to their participation, and this study was approved by the Texas A&M University Institutional Committee on Animal Use and Care and the Clinical Research Review Committee.
# The limit of detection was set at the lowest standard of 0.0017 parasite equivalents per 50 ng of DNA. For detection of T. cruzi infection in dogs, DNA was extracted from 250 uL of the buffy coat fraction of EDTA-treated blood using the E.Z.N.A Tissue DNA kit (Omega Bio-Tek, Norcross, GA, USA) according to the manufacturer's protocol except 50 μL of elution buffer was used. T. cruzi-negative controls (phosphate buffered saline) were included in the DNA extractions. Samples were tested using qPCR for the presence of T. cruzi satellite DNA using the Cruzi 1/2 primer set and Cruzi 3 probe in a real-time assay, which amplifies a 166-bp segment of a repetitive nuclear DNA (Piron, et al., Acta tropica. 103(3):195-200 (2007), Cummings & Tarleton, Molecular and biochemical parasitology 129(1):53-9 (2003)) as previously described (Meyers, et al., PLoS neglected tropical diseases 11(8) 2017)). A sample was considered T. cruzi-positive if the Ct value was <35 (Curtis-Robles, et al., Vet Parasitol Reg Stud Reports 12:85-8 (2018)).
# The 67 animals considered infection-negative were randomly assigned to either a control (no therapy) or a prophylactic group, which received twice weekly doses of BNZ at a level of not less than 10 mg/kg. This dosage is approximately the normal daily dose previously used (mostly ineffectively) to attempt drug-cure in dogs (Guedes, et al., Acta tropica. 84(1):9-17 (2002), Santos, et al., The Journal of antimicrobial chemotherapy. 67(8):1987-95 (2012), Cunha, et al., Experimental parasitology. 204:107711 (2019)). Dogs in these groups were then re-sampled 10-12 weeks (considered the midpoint of the transmission season) and ˜24 weeks (end of season).
# [8] = tested on: T. cruzi extracellular amastigotes; assay: Extracellular amastigote assay (ATPlite ATP production, 48 hours); format: cell-based, Trypanosoma cruzi; conditions: relative to parent ester (FIG. 2A)
# Procedure: as §1
# [9] = tested on: mammalian enzymes, receptors and ion channels; assay: Safety pharmacology: affinity for a broad array of mammalian enzymes, receptors and ion channels; format: binding
# [10] = Standard Ames study; format: cell-based
# [11] = tested on: cytochrome P450 enzymes; assay: Inhibition of representative cytochrome P450 enzymes; format: in vitro ADME; conditions: 10 uM
# [12] = High dose 7-day toxicology studies in rats; format: in vivo; conditions: high dose 7-day toxicology studies, oral
# [13] = dog BEHE4, 30 mg/kg twice a week, 24 week sample point
smiles,measurement,setting,value
CC[C@@H]([C@H](C)O)n1ncn(-c2ccc(N3CCN(c4ccc(OC[C@@H]5CO[C@@](Cn6cncn6)(c6ccc(F)cc6F)C5)cc4)CC3)cc2)c1=O [posaconazole],failures in treatment trials,[1],100%
Cc1c(C(=O)N[C@H](C(=O)OCc2ccc(S(C)(=O)=O)cc2)C(C)C)ccc2c1B(O)OC2 [AN14561],in vitro activity against T. cruzi,[2],significantly less potent
Cc1c(C(=O)N[C@H](C(=O)OCc2ccccc2)C(C)C)ccc2c1B(O)OC2 [AN11735],IC50,[2]; read-out: in vitro activity against T. cruzi (IC50),< 10 nM
O=C(Nc1ccc2c(c1)B(O)OC2)c1ccc(F)cc1C(F)(F)F [AN4169],therapeutic margin in rodent tolerability studies,[3],insufficient therapeutic margin
same,cure of mice,[4]; mice infected with T. cruzi Brazil strain,100%
Cc1c(C(=O)N[C@H](C(=O)OCc2ccc(F)cc2)C(C)C)ccc2c1B(O)OC2 [AN11736],effect of CPSF3 overexpression on killing,[5],induced resistance to killing
O=C(Cn1ccnc1[N+](=O)[O-])NCc1ccccc1 [benznidazole],mice systemically parasite-positive,"[6]; IFNγ KO mice, within 4 weeks of termination of prophylaxis",4 of 5
same,overall effect of prophylaxis regimen,[6]; WT mice,prevented or truncated an infection in most cases
same,luciferase signal,"[6]; WT mice, day 14 post-exposure or beyond",none of the mice in the BNZ-treated WT group had a detectable luciferase signal above background
same,"mice negative for T. cruzi DNA (qPCR of skeletal muscle, heart, gut)","[6]; WT mice, week 33",at least 3 of the 5
same,fraction of CD127+ cells in the TSKb20-specific CD8+ T cell population,"[6]; mice under prophylaxis vs no prophylaxis, through 21st week",substantially higher fraction of CD127+ cells
same,luciferase signal,"[6]; some IFNγ KO mice, day 14 post-exposure (not at 12 weeks)",low level signal
same,blood PCR,[7]; [13],PCR negative
same,serology,[7]; [13],seronegative
same,impact of prophylaxis on new infections,[7]; dogs,no impact on the incidence of new infections
same,impact of prophylaxis on new infections,"[7]; dogs, listed as BNZ",no impact on the number of new infections
same,new infections,"[7]; dogs, prophylaxis group, twice weekly not less than 10 mg/kg",26.5%
same,cure of established infections,"[4]; mice, weekly or twice weekly high dose (2.5-5× normal daily dose)",could cure established infections
same,generation of cure with 20 days of treatment,[4]; mice,only partially effective
same,failures in treatment trials,[1],> 60%
CC(C)[C@H](NC(=O)c1ccc2c(c1)B(O)OC2)C(=O)OCc1ccccc1 [AN10443],in vitro activity against T. cruzi,[2],submicromolar activity
same,metabolic stability in mouse S9 liver fraction assay,,good metabolic stability
Cc1c(C(=O)N[C@H](C(=O)O)C(C)C)ccc2c1B(O)OC2 [AN14667],reduced activity on intracellular amastigotes,[2]; relative to parent ester (FIG. 2A),~1000 fold
same,reduced activity on extracellular amastigotes,[8],~1000 fold
Cc1c(C(=O)NC(C(=O)OCCN2CCOCC2)C(C)C)ccc2c1B(O)OC2 (centres unmarked) [AN15129],in vitro activity against T. cruzi,[2],less active than neutral compounds
Cc1c(C(=O)N[C@H](C(=O)OCc2ccc(F)cc2)C(C)(C)O)ccc2c1B(O)OC2 [AN14817],"affinity for a broad array of mammalian enzymes, receptors and ion channels",[9],little to no affinity
same,"genotoxicity, Ames",[10],non-genotoxic
same,inhibition of representative cytochrome P450 enzymes,[11],did not demonstrate significant inhibition
same,dose proportionality of exposure,[12],non-dose proportional exposure
